One assay relates to RSV strain A2. The assay is described as follows: RSV Cellomics assay for RSV A2 antiviral activity (EC50-RSV-Hep2-96-Cellomics). The following applies: human respiratory syncytial virus, HEp-2, 72 h; Hep2 cells, RSV strain A2, MOI=0.05, 3 days, RSV F protein immunofluorescence; read-out: EC50-RSV-HEp2-96-Cellomics Example B1. The assay is classed as cell-based. How it is done: Example B1: RSV Cellomics Assay for RSV A2 Antiviral Activity (EC50-RSV-Hep2-96-Cellomics)
8×10^3 Hep2 cells are seeded into 96 well plates in 100 μL of media (DMEM supplemented with GlutaMAX, 10% FBS and Pen/Strep) and briefly spun at 50×g for 1 minute to attach cells. Cells were further allowed to attach with overnight incubation at 37° C.+5% CO2. The following day, the media was aspirated and 100 μL of fresh DMEM media containing 2% FBS was added. A three-fold dilution series of compounds of interest are then added to the plate using the Tecan D300e dispenser and the plate is normalized to the well with the highest volume of DMSO. The cells are next infected by adding 100 μL of media containing RSV strain A2 at an MOI=0.05 and the plates incubated for 3 days at 37° C.+5% CO2. Following the incubation, the media is removed, and the cells are washed once with 250 μL PBS and fixed with 250 μL ice-cold 100% methanol for 10 minutes at 4 C. The methanol is then removed and the plates air dried for 5 minutes and then washed once with 250 μL PBS to remove any residual methanol. The wells are then blocked 60 μL/well of BlockAid (B10710, Thermo-Fisher) for 1 hour at RT on rocker at which point the blocking buffer is carefully aspirated. Primary antibody against the RSV F protein (MAB 858-1) is then diluted 1:2000 in SuperBlock (37515, Thermo Fisher) and 50 μL of the primary antibody solution is added to each well. The plates are incubated at room temperature for 1 hour with gentle agitation and then washed with 250 μL of PBS-Tween 3 times. A goat anti-mouse AlexaFluor 647 conjugated secondary antibody (Sigma, A21235) is then diluted 1:2000 and Hoescht 33342 (H3570) at 1:1000 in SuperBlock and 50 μL added to the wells for 1 hour at 37° C. After incubation the antibody solution is aspirated, and the wells are then washed with 250 μL of PBS-Tween 3 times. To keep cells from drying out, 100 μL of PBS is added to each well and the plates are sealed with black plate seal. Fluorescence at the 647 nm wavelength is measured using a Cellomics CellInsight CX7 machine. Compound activity is determined as a percentage of the % positive cells (or average intensity) compared to DMSO treated RSV infected well controls following subtraction of uninfected controls. The EC50 values are then calculated using nonlinear regression analysis in GraphPad Prism.

Assay [1] concerns Human Rhinovirus 1B (HRVIB). Put plainly: H1-HeLa HRV-CTG EC50, HRV1B. It counts as cell-based. The conditions noted are these: Rhinovirus A, 96 h, H1-HeLa cells, MOI 0.5, 4 days, Celltiter-Glo, read-out: EC50 H1-HeLa_HRV1B_HRV-CTG 384-well Assay (per Ex. Z). The text has this:
Example Z: H1-HeLa HRV-CTG EC50
H1-Hela cell line (ATCC, Manassas, VA, Cat #CRL-1958) was maintained in Dulbecco's […] Essential Medium (DMEM) (Corning, New York, NY, Cat #15-018 CM) supplemented with 10% fetal bovine serum (FBS) (Hyclone, Logan, UT, Cat #SH30071-03), and 1× Penicillin-Streptomycin-L-Glutamine (Corning, New York, NY, Cat #30-009-CI). Cells were passaged 2 times per week to maintain sub-confluent densities and were used for experiments at passage 5-30. The Human Rhinovirus 1B (HRVIB) (ATCC, Manassas, VA, Cat #VR-1645), Human Rhinovirus 14 (HRV14) (ATCC, Manassas, VA, Cat #VR-284), and Human Rhinovirus 16 (HRV16) (ATCC, Manassas, VA, Cat #BR-283) was obtained through ATCC. Viral infection was monitored by determining viability of H1-HeLa cells as described below.
Test molecules are prepared in 100% DMSO in 384-well polypropylene plates (Greiner, Monroe, NC, Cat #784201) with 8 compounds per plate in grouped replicates of 4 at 10 serially diluted concentrations (1:3). […]
The test compounds were spotted to 384-well assay plates (Greiner, Monroe, NC, Cat #781091) at 200 nL per well using an Echo acoustic dispenser (Labcyte, Sunnyvale, CA). […] 40 μL per well of Celltiter-Glo reagent was added and the plates were incubated at room temperature for 15 minutes before reading the luminescence signal on an En Vision multimode plate reader (Perkin Elmer, Waltham, MA). […]
A general note: Cellular ATP, detected with luciferase, serves as a proxy for viable cell number.

Regarding `N#Cc1cc(F)cc(CO[C@H](COCCCCCCCCCCCCCCCCCC(F)(F)F)COP(=O)(O)OC[C@@]2(C#N)O[C@@H](c3ccc4c(N)ncnn34)[C@H](O)[C@@H]2O)c1` [Compound 1, ((2R,3S,4R,5S)-5-(4-aminopyrrolo[2,1-f][1,2,4]triazin-7-yl)-2-cyano-3,4-dihydroxytetrahydrofuran-2-yl)methyl ((R)-2-((3-cyano-5-fluorobenzyl)oxy)-3-((18,18,18-trifluorooctadecyl)oxy)propyl) hydrogen phosphate], the EC50 (as a rule, the concentration at which the effect is half-maximal) amounted to 0.076 µM in the assay with RSV strain A2 and 0.012 µM in assay [1].
For `N#Cc1cc(F)cc(CO[C@H](CCCCCCCCCCCCCCCCCCC(F)(F)F)COP(=O)(O)OC[C@@]2(C#N)O[C@@H](c3ccc4c(N)ncnn34)[C@H](O)[C@@H]2O)c1` [Compound 2, ((2R,3S,4R,5S)-5-(4-aminopyrrolo[2,1-f][1,2,4]triazin-7-yl)-2-cyano-3,4-dihydroxytetrahydrofuran-2-yl)methyl ((R)-2-((3-cyano-5-fluorobenzyl)oxy)-21,21,21-trifluorohenicosyl) hydrogen phosphate] the same measures were 0.241 µM and 0.062 µM.

Source of the values: US20240309028A1, “PHOSPHOLIPID COMPOUNDS AND METHODS OF MAKING AND USING THE SAME” (Gilead Sciences, Inc., priority 2023, published 2024).
